Measurements reported in patent US20140120083A1, “TREATMENT OF CANCERS USING PI3 KINASE ISOFORM MODULATORS” (INFINITY PHARMACEUTICALS, INC., priority 2012, published 2014).

How the values were obtained:
Assay type in all cases: biochemical
[1] = molecular target: PI3K δ (Homo sapiens, UniProt O00329); experiment: In vitro IC50, PI3K δ; parameters: purchased Upstate
Description: (§1) An exemplary system is PI 3-Kinase (human) HTRF™ Assay from Upstate.

[2] = molecular target: PI3K β (Homo sapiens, UniProt P42338); experiment: In vitro IC50, PI3K β
Description: as §1

[3] = molecular target: T1, PI3K γ (Homo sapiens, UniProt P48736); experiment: In vitro IC50, PI3K γ
T1 construct: purchased Sigma
Description: as §1

[4] = molecular target: T2, PI3K α (Homo sapiens, UniProt P42336); experiment: In vitro IC50, PI3K α
T2 construct: purchased Upstate
Description: as §1

T1 sequence (P48736 whole entry): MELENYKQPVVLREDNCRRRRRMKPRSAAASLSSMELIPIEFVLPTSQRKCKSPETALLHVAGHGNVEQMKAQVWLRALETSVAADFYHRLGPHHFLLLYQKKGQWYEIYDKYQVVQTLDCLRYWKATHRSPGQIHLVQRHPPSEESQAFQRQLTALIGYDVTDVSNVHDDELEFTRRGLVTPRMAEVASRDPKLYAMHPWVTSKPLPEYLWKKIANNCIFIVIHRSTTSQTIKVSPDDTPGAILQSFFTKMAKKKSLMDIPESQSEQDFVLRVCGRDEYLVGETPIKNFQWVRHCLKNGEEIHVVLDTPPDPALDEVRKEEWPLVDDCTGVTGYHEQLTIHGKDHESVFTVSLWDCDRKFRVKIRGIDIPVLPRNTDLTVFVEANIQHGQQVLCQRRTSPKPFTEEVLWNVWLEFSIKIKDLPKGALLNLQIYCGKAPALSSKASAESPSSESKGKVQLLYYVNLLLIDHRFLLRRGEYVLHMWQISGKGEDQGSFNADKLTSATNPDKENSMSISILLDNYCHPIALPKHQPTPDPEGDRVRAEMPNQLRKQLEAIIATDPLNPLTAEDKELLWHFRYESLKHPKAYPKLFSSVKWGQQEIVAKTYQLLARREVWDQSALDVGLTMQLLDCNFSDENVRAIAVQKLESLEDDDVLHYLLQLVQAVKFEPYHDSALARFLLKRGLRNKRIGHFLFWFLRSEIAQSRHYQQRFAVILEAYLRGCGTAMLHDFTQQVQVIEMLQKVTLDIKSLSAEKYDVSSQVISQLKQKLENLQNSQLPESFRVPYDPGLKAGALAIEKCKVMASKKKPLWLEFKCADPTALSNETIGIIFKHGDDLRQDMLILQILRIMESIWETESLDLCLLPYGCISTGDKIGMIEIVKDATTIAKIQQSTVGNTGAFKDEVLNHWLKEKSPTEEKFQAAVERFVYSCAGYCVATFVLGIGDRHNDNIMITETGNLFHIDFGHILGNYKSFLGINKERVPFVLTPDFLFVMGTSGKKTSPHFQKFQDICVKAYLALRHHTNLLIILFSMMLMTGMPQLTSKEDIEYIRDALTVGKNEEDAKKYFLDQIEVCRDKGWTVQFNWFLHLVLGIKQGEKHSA
T2 sequence (P42336 whole entry): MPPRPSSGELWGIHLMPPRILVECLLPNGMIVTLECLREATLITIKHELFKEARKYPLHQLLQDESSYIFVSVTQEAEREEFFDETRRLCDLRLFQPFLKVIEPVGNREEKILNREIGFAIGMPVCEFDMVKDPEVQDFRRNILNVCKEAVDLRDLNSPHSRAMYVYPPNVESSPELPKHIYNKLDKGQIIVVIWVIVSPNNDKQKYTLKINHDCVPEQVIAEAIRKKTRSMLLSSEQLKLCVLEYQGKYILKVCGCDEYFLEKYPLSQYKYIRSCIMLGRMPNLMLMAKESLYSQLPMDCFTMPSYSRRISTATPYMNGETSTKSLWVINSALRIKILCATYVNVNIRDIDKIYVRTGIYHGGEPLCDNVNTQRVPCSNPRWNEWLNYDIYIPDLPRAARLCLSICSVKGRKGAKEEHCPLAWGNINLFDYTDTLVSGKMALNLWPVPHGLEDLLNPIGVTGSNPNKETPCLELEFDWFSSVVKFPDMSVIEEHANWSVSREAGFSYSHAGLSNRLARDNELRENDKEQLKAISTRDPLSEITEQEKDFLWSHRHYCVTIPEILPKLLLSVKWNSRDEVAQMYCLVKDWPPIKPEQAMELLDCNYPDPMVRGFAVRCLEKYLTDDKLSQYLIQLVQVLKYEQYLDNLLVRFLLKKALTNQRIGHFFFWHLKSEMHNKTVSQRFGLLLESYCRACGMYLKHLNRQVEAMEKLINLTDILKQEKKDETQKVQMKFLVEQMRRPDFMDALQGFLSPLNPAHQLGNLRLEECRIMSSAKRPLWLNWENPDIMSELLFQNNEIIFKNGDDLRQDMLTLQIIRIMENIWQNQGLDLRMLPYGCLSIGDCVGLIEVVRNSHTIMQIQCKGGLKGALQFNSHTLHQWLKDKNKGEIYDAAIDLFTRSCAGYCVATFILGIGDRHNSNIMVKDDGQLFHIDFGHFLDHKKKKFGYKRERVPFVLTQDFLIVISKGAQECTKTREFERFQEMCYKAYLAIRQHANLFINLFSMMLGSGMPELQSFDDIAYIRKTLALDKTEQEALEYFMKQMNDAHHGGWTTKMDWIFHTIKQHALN
T2 sequence (P27986 whole entry partner): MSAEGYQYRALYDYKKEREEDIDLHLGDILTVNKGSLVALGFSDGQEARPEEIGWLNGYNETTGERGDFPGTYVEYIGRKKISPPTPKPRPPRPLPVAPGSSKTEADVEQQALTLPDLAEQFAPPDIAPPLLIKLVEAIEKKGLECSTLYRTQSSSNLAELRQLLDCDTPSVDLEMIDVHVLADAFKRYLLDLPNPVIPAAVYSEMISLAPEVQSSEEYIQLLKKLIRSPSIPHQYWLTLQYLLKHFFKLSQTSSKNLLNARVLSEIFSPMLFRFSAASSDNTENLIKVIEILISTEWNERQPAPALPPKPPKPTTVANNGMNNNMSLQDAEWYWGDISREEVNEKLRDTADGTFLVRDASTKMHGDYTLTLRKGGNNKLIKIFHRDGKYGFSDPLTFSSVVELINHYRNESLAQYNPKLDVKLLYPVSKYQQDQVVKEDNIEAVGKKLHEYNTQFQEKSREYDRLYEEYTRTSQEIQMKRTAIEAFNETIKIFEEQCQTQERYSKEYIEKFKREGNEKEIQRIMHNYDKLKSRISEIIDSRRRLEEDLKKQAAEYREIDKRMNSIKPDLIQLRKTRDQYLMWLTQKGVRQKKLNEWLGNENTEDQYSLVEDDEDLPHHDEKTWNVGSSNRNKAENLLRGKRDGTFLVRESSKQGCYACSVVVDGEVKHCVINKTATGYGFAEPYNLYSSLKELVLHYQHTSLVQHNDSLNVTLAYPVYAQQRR
PI3K β, sequence (P42338 whole entry): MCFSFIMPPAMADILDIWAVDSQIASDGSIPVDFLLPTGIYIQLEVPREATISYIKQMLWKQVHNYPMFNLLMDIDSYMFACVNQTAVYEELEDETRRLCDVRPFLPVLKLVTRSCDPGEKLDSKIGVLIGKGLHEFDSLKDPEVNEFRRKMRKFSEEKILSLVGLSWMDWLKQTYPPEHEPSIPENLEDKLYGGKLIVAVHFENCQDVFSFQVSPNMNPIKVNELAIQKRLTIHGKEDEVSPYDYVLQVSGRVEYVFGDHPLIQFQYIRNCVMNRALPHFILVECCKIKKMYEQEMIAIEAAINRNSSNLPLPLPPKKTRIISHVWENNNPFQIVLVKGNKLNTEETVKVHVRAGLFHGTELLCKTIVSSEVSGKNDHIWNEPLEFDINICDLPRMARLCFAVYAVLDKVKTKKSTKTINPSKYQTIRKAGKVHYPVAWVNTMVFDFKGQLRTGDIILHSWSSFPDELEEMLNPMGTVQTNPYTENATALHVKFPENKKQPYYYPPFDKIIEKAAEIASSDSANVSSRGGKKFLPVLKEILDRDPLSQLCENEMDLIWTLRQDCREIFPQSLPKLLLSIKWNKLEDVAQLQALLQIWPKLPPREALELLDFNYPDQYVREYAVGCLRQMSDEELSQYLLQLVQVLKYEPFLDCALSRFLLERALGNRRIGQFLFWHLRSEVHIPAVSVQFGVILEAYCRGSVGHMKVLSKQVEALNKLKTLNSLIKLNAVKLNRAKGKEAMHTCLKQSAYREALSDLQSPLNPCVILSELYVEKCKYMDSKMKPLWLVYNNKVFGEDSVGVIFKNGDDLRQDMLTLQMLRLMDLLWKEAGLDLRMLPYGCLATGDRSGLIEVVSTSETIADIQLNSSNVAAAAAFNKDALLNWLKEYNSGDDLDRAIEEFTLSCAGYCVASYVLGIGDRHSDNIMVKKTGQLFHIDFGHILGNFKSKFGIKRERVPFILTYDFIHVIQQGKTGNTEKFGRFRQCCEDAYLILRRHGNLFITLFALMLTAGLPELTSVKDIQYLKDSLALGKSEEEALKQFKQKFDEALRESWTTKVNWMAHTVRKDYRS
PI3K δ, sequence (O00329 whole entry): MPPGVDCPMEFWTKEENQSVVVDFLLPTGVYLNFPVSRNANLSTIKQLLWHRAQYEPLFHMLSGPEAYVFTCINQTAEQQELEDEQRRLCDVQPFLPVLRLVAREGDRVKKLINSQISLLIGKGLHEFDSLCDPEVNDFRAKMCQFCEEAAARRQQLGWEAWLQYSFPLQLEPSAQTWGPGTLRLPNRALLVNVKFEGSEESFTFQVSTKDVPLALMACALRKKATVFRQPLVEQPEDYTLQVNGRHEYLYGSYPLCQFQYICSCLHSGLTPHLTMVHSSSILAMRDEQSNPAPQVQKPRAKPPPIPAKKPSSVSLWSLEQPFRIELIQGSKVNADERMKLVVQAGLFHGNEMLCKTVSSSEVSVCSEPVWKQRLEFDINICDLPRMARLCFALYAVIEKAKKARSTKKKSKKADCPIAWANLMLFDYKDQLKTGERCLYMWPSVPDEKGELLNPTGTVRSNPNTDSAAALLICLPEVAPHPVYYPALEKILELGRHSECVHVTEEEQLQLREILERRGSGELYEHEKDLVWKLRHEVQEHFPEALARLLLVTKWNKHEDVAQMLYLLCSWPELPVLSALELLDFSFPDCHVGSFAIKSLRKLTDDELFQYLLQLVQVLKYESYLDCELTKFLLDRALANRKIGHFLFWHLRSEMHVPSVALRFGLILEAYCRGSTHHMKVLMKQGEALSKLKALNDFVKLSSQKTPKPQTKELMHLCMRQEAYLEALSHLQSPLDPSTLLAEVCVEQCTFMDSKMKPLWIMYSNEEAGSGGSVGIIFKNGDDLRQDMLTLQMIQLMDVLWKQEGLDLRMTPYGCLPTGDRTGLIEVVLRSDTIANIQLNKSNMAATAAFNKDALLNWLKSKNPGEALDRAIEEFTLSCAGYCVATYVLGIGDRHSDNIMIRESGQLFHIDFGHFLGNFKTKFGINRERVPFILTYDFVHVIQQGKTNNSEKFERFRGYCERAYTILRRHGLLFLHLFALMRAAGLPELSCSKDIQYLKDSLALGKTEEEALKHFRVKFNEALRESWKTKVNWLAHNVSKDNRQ
PI3K δ, sequence (P27986 whole entry partner): as the sequence (P27986 whole entry partner) above

| IC50 [1] | IC50 [2] | IC50 [3] | IC50 [4] | SMILES |
| --- | --- | --- | --- | --- |
| < 0.1 µM | > 10 µM | < 1 µM | > 10 µM | Cc1cccc2cc(Cn3nc(C#CCO)c4c(N)ncnc43)n(-c3ccccc3F)c(=O)c12 [Compound 8] |
| < 0.1 µM | < 10 µM | < 0.1 µM | > 10 µM | Cc1ccccc1-n1c(Cn2nc(-c3ccc(F)c(O)c3)c3c(N)ncnc32)cc2cccc(C)c2c1=O [Compound 12] |
| < 10 µM | > 10 µM | < 1 µM | > 10 µM | COc1cc(-c2nn(Cc3cc4cccc(C)c4c(=O)n3-c3ccccc3F)c3ncnc(N)c23)ccc1Cl [Compound 22] |
| < 1 µM | > 10 µM | < 10 µM | > 10 µM | Cc1cccc2cc(Cn3nc(Cl)c4c(N)ncnc43)n(-c3ccccc3F)c(=O)c12 [Compound 34] |
| < 1 µM | > 10 µM | < 10 µM | > 10 µM | Cc1cccc2cc(Cn3nc(Br)c4c(N)ncnc43)n(-c3ccccc3F)c(=O)c12 [Compound 35] |
| < 1 µM | > 10 µM | < 0.1 µM | > 10 µM | Cc1ccccc1-n1c(Cn2nc(-c3ccc(O)cc3)c3c(N)ncnc32)cc2cccc(C)c2c1=O [Compound 36] |
| < 0.1 µM | > 10 µM | < 10 µM | > 10 µM | Cc1ccccc1-n1c(Cn2nc(C#C[C@@H](C)O)c3c(N)ncnc32)cc2cccc(C)c2c1=O [Compound 37] |
| < 10 µM | > 10 µM | < 1 µM | > 10 µM | Cc1ccccc1-n1c(Cn2nc(-c3cccc(Cl)c3)c3c(N)ncnc32)cc2cccc(C)c2c1=O [Compound 39] |
| < 10 µM | > 10 µM | < 1 µM | > 10 µM | Cc1ccccc1-n1c(Cn2nc(-c3cccc(F)c3)c3c(N)ncnc32)cc2cccc(C)c2c1=O [Compound 41] |
| < 1 µM | > 10 µM | > 10 µM | > 10 µM | Cc1ccccc1-n1c(Cn2nc(C#C[C@@H](C)O)c3c(N)ncnc32)cc2cccc(F)c2c1=O [Compound 43] |
| < 1 µM | > 10 µM | < 0.1 µM | > 10 µM | COc1ccc(-c2nn(Cc3cc4cccc(C)c4c(=O)n3-c3ccccc3C)c3ncnc(N)c23)cc1OC [Compound 44] |
| < 0.1 µM | > 10 µM | < 0.1 µM | > 10 µM | Cc1ccccc1-n1c(Cn2nc(-c3ccc(F)c(O)c3)c3c(N)ncnc32)cc2cccc(F)c2c1=O [Compound 56] |
| < 0.1 µM | > 10 µM | < 0.1 µM | > 10 µM | Cc1ccccc1-n1c(Cn2nc(-c3cccc(O)c3)c3c(N)ncnc32)cc2cccc(F)c2c1=O [Compound 59] |
| < 0.1 µM | < 1 µM | < 0.1 µM | > 10 µM | Cc1cccc2cc(Cn3nc(-c4cccc(O)c4)c4c(N)ncnc43)n(C(C)C)c(=O)c12 [Compound 62] |
| < 0.1 µM | > 10 µM | < 0.1 µM | > 10 µM | Cc1cccc2cc(Cn3nc(-c4ccc(F)c(O)c4)c4c(N)ncnc43)n(C3CCCC3)c(=O)c12 [Compound 64] |
| < 1 µM | < 10 µM | < 1 µM | > 10 µM | Cc1cccc2cc(Cn3nc(-c4ccc(Cl)c(O)c4)c4c(N)ncnc43)n(C3CCCC3)c(=O)c12 [Compound 71] |
| < 0.1 µM | < 10 µM | < 0.1 µM | > 10 µM | Cc1cccnc1-n1c(Cn2nc(-c3ccc(Cl)c(O)c3)c3c(N)ncnc32)cc2cccc(C)c2c1=O [Compound 72] |
| < 0.1 µM | > 10 µM | < 1 µM | > 10 µM | Cc1cccnc1-n1c(Cn2nc(-c3cccc(O)c3)c3c(N)ncnc32)cc2cccc(C)c2c1=O [Compound 73] |

More lines, now with the values behind:

| SMILES | IC50 [1] | IC50 [2] | IC50 [3] | IC50 [4] |
| --- | --- | --- | --- | --- |
| Cc1cccc2cc(Cn3nc(-c4ccc(F)c(O)c4)c4c(N)ncnc43)n(-c3ccccc3F)c(=O)c12 [Compound 9] | < 0.1 µM | > 10 µM | < 1 µM | > 10 µM |
| Cc1cccc2cc(Cn3nc(-c4cccc(O)c4)c4c(N)ncnc43)n(-c3ccccc3F)c(=O)c12 [Compound 10] | < 0.1 µM | > 10 µM | < 1 µM | > 10 µM |
| Cc1ccccc1-n1c(Cn2nc(C#CCO)c3c(N)ncnc32)cc2cccc(C)c2c1=O [Compound 11] | < 0.1 µM | > 10 µM | < 1 µM | > 10 µM |
| Cc1ccccc1-n1c(Cn2nc(C#CC3CC3)c3c(N)ncnc32)cc2cccc(C)c2c1=O [Compound 14] | < 1 µM | > 10 µM | < 1 µM | > 10 µM |
| COc1cc(-c2nn(Cc3cc4cccc(C)c4c(=O)n3-c3ccccc3C)c3ncnc(N)c23)ccc1Cl [Compound 21] | < 1 µM | > 10 µM | < 0.1 µM | > 10 µM |
| Cc1ccccc1-n1c(Cn2nc(-c3ccc(Cl)c(O)c3)c3c(N)ncnc32)cc2cccc(C)c2c1=O [Compound 23] | < 0.1 µM | < 10 µM | < 0.1 µM | > 10 µM |
| Cc1ccccc1-n1c(Cn2nc(-c3ccc(O)c(Cl)c3)c3c(N)ncnc32)cc2cccc(C)c2c1=O [Compound 25] | < 0.1 µM | < 10 µM | < 0.1 µM | > 10 µM |
| Cc1cccc2cc(Cn3nc(-c4ccc(O)c(Cl)c4)c4c(N)ncnc43)n(-c3ccccc3F)c(=O)c12 [Compound 26] | < 1 µM | > 10 µM | < 0.1 µM | > 10 µM |
| Cc1ccccc1-n1c(Cn2nc(-c3ccc(F)cc3)c3c(N)ncnc32)cc2cccc(C)c2c1=O [Compound 27] | < 10 µM | > 10 µM | < 1 µM | > 10 µM |
| Cc1cccc2cc(Cn3nc(C#C[C@@H](C)O)c4c(N)ncnc43)n(-c3ccccc3F)c(=O)c12 [Compound 28] | < 0.1 µM | > 10 µM | < 1 µM | > 10 µM |
| Cc1cccc2cc(Cn3nc(-c4ccc(O)c(F)c4)c4c(N)ncnc43)n(-c3ccccc3F)c(=O)c12 [Compound 29] | < 1 µM | > 10 µM | < 0.1 µM | > 10 µM |
| Cc1cccc2cc(Cn3nc(-c4cccc(F)c4)c4c(N)ncnc43)n(-c3ccccc3F)c(=O)c12 [Compound 40] | < 10 µM | > 10 µM | < 10 µM | > 10 µM |
| Cc1ccccc1-n1c(Cn2nc(I)c3c(N)ncnc32)cc2cccc(F)c2c1=O [Compound 42] | < 1 µM | > 10 µM | < 10 µM | > 10 µM |
| Cc1cccc2cc(Cn3nc(-c4ccc(O)cc4)c4c(N)ncnc43)n(-c3ccccc3F)c(=O)c12 [Compound 46] | < 10 µM | > 10 µM | < 1 µM | > 10 µM |
| Cc1ccccc1-n1c(Cn2nc(-c3ccc(Cl)c(O)c3)c3c(N)ncnc32)cc2ccccc2c1=O [Compound 52] | < 0.1 µM | > 10 µM | < 0.1 µM | > 10 µM |
| Cc1ccccc1-n1c(Cn2nc(-c3ccc(F)c(O)c3)c3c(N)ncnc32)cc2ccccc2c1=O [Compound 54] | < 0.1 µM | > 10 µM | < 0.1 µM | > 10 µM |
| Cc1ccccc1-n1c(Cn2nc(-c3cc(O)cc(F)c3)c3c(N)ncnc32)cc2cccc(F)c2c1=O [Compound 55] | < 0.1 µM | < 10 µM | < 1 µM | > 10 µM |
| Cc1cccc2cc(Cn3nc(I)c4c(N)ncnc43)n(C3CCCC3)c(=O)c12 [Compound 57] | < 1 µM | > 10 µM | < 10 µM | > 10 µM |
| Cc1cccc2cc(Cn3nc(-c4cccc(O)c4)c4c(N)ncnc43)n(C3CCCC3)c(=O)c12 [Compound 58] | < 0.1 µM | < 10 µM | < 1 µM | > 10 µM |
| Cc1cccc2cc(Cn3nc(I)c4c(N)ncnc43)n(C(C)C)c(=O)c12 [Compound 60] | < 0.1 µM | > 10 µM | > 10 µM | > 10 µM |
| Cc1cccc2cc(Cn3nc(C#C[C@@H](C)O)c4c(N)ncnc43)n(C(C)C)c(=O)c12 [Compound 61] | < 0.1 µM | < 10 µM | < 10 µM | > 10 µM |
| Cc1cccc2cc(Cn3nc(-c4cc(O)cc(F)c4)c4c(N)ncnc43)n(C3CCCC3)c(=O)c12 [Compound 63] | < 0.1 µM | < 10 µM | < 0.1 µM | < 10 µM |
| Cc1cccc2cc(Cn3nc(C#C[C@@H](C)O)c4c(N)ncnc43)n(C3CCCC3)c(=O)c12 [Compound 65] | < 0.1 µM | < 10 µM | < 10 µM | > 10 µM |
| Cc1cccc2cc(Cn3nc(-c4cc(O)cc(F)c4)c4c(N)ncnc43)n(C(C)C)c(=O)c12 [Compound 66] | < 0.1 µM | < 1 µM | < 1 µM | < 10 µM |
| Cc1cccc2cc(Cn3nc(-c4ccc(F)c(O)c4)c4c(N)ncnc43)n(C(C)C)c(=O)c12 [Compound 67] | < 0.1 µM | < 10 µM | < 0.1 µM | > 10 µM |
| Cc1cccnc1-n1c(Cn2nc(-c3ccc(F)c(O)c3)c3c(N)ncnc32)cc2cccc(C)c2c1=O [Compound 68] | < 0.1 µM | > 10 µM | < 0.1 µM | > 10 µM |
| Cc1cccnc1-n1c(Cn2nc(C#C[C@@H](C)O)c3c(N)ncnc32)cc2cccc(C)c2c1=O [Compound 69] | < 1 µM | > 10 µM | > 10 µM | > 10 µM |
| COc1ccccc1-n1c(Cn2nc(I)c3c(N)ncnc32)cc2cccc(C)c2c1=O [Compound 70] | < 0.1 µM | > 10 µM | < 1 µM | > 10 µM |
